Data taken from PMC9843700 (Nature biotechnology, 2021).
pIC50: −log10 of the molar value.

Legend:
[1] = tested on: Ebola virus (EBOV/May-eGFP); experiment: microbe, parasite or virus in culture; format: cell-based; conditions: Zaire ebolavirus, read-out: IC50, EBOV infection inhibition
[2] = tested on: SARS CoV-2 (USA_WA1/2020); format: cell-based
cell viability = experiment: ATP content assay for cell viability and compound cytotoxicity

Structure (SMILES)	pIC50 [1]	selectivity index (SI) [2]	pIC50 ([2]; read-out: IC50, SARS-CoV-2 CPE assay)	inhibition of cell viability (slight cytotoxicity) (cell viability; maximal effect)	pIC50 (cell viability; read-out: cytotoxicity IC50 (cell viability), counter assay to CPE)
CCOC(=O)c1c(CSc2ccccc2)n(C)c2cc(Br)c(O)c(CN(C)C)c12 [umifenovir]	≥ 5.30				
CC(C(O)c1ccccc1)N(C)CCOC(c1ccccc1)c1ccccc1 (stereo not drawn) [difeterol]	≥ 5.30				
Cc1cccc(C=NNc2cc(N3CCOCC3)nc(N3CCOCC3)n2)c1 [MLS000699212-03, Benzaldehyde, 3-methyl-, 2-(2,6-di-4-morpholinyl-4-pyrimidinyl) hydrazone]		28	6.30	55%	4.85
